Activity calls are given as the source filed them.
Experiments:
[1] = molecular target: T1, High affinity choline transporter 1 (Homo sapiens, UniProt Q9GZV3); test: human choline transporter blockers, potency – cell-based, 10-point CRC, membrane potential dye, dose response (AID 588401); type: functional;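 note: membrane potential dye fluorescence of choline-evoked depolarization via CHT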
T1 sequence (Q9GZV3 whole entry): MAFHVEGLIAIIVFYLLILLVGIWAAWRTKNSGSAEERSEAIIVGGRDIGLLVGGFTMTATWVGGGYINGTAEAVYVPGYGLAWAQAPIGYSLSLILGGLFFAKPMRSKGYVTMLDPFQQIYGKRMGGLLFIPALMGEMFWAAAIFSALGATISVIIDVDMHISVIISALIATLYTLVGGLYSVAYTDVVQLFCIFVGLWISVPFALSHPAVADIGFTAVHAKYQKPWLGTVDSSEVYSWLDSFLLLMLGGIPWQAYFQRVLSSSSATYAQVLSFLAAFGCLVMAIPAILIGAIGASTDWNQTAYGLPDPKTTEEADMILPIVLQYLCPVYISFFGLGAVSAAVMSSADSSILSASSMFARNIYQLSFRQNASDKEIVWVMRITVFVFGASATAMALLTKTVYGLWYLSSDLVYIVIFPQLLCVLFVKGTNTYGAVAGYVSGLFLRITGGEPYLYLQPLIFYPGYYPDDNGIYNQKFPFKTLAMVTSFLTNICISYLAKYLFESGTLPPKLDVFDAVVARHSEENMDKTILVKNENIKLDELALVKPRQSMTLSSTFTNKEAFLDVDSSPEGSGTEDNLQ

[2] = molecular target: T1, High affinity choline transporter 1; test: human choline transporter blockers, potency – cell-based, 5-point CRC, membrane potential dye, dose response (AID 504840); type: functional
[3] = molecular target: T2, Cysteine protease ATG4B (Homo sapiens, UniProt Q9Y4P1); type: functional;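 note: Fluorescence-based dose-response confirmation assay measuring inhibition of ATG4B activity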
T2 sequence (Q9Y4P1 whole entry): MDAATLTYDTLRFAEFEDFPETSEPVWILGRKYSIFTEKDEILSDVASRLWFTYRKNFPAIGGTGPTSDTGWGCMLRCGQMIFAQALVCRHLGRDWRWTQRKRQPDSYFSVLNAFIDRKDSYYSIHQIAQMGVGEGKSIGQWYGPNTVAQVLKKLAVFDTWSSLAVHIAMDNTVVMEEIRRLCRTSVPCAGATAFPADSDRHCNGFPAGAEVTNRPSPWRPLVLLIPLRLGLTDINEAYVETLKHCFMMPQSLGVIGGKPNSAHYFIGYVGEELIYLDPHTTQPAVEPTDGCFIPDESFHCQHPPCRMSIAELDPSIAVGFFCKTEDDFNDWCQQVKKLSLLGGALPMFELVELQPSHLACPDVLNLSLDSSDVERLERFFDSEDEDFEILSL

[4] = molecular target: Phospholipase A2 (Homo sapiens, UniProt P04054); type: functional;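 note: confirmatory dose-response counterscreen on phospholipase A2, testing hits that came from an ultra-high-throughput screen for ATG4B inhibitors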
[5] = molecular target: 26S proteasome non-ATPase regulatory subunit 14 (Homo sapiens, UniProt O00487); test: inhibition of proteasome subunit RPN11 – biochemical, fluorescence polarization, uHTS hits, confirmation (AID 602368); type: functional
[6] = molecular target: Prothrombin (Bos taurus, UniProt P00735); test: thrombin protease inhibitors – biochemical, fluorescence polarization, uHTS hits, dose response (AID 602369); type: functional
[7] = molecular target: 72 kDa type IV collagenase (Homo sapiens, UniProt P08253); test: Dose Response validation of uHTS RPN11 inhibitor hits using a MMP-2 Fluorescence assay.; type: functional
[8] = molecular target: Estrogen receptor beta (Homo sapiens, UniProt Q92731); test: blockers of SRC-3 recruitment to ERβ – biochemical, ELISA, streptavidin-HRP readout, orthogonal assay, confirmation (AID 1060)
[9] = molecular target: DNA (cytosine-5)-methyltransferase 1 (Homo sapiens, UniProt P26358); test: inhibition of DNA methylation by DNMT1 – biochemical, fluorescent molecular beacon, confirmation (AID 602386); type: functional
[10] = molecular target: T3, Carboxy-terminal domain RNA polymerase II polypeptide A small phosphatase 1 (Homo sapiens, UniProt Q9GZU7); test: CTDSP1 inhibitors, concentration-response, biochemical, absorbance readout, ultra-high-throughput screen actives (AID 540297); type: functional
T3 sequence (Q9GZU7 whole entry): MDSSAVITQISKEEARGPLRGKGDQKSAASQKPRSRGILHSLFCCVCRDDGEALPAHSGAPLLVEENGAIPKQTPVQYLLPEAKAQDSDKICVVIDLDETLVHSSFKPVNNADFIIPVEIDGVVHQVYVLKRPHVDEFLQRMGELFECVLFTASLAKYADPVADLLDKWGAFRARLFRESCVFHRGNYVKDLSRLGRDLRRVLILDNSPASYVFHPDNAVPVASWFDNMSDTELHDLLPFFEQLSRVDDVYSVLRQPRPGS

[11] = non-specific 3'UTR reporter inhibition in Clone20-Shn3RL – cell-based, Renilla luciferase, cherry-picked, counter-screen for Shn3 inhibitor project, dose response (AID 624133); type: functional
[12] = reduction of Shn3 3'UTR-driven luciferase in osteoblasts – cell-based, Clone20 osteoblasts, firefly luciferase, cherry-picked, dose response (AID 624132); type: functional;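 note: firefly luciferase luminescence from reporter carrying the Shn3 3'UTR in osteoblasts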
[13] = viability of HCT116 lacking mutant beta-catenin – cell-based, human colon tumor, dose response (AID 1045); type: functional;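 note: HCT116 colon tumor cells with beta catenin knocked out; cells exposed to compound for 60 hours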
[14] = loss of viability in HepG2 cells – cell-based, CellTiter-Glo, cherry-picked, cytotoxicity control for Shn3 inhibitor project, dose response (AID 624134); type: functional
[15] = molecular target: T4, Fatty acid synthase (Homo sapiens, UniProt P49327); test: inhibition of human FAS-TE enzyme activity – biochemical, endpoint fluorescence intensity, uHTS hits, dose response (AID 624327); type: functional;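 note: fluorescence from hydrolysis of an O-methyl fluorescein acyl ester substrate by the enzyme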
[16] = viability of PTEN-deleted HCT116 cells – cell-based, HCT116 PTEN knockout, dose response (AID 1047); type: functional;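 note: HCT116 colon tumor cells with PTEN knocked out; cells exposed to compound for 60 hours before readout; potency for loss of cell viability measured by luminescence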
[17] = molecular target: T4, Fatty acid synthase; test: inhibition of human FAS-TE enzyme activity – biochemical, kinetic fluorescence intensity, dose response (AID 624326); type: functional;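 note: rate of fluorescence rise from hydrolysis of a fluorogenic O-methyl fluorescein ester substrate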
[18] = test system: Vero; test: cells; type: functional, cell-based; conditions: Chlorocebus sabaeus
[19] = test system: Vero; test: cells; type: functional; conditions: Chlorocebus sabaeus
[20] = viability of uninfected HEp-2 cells – cell-based, HTS, cytotoxicity control for RSV inhibitor project, dose response (AID 2410); type: functional; conditions: human respiratory syncytial virus
[21] = cells
[22] = Luminescence Cell-Based Dose Confirmation to Identify Activators of 5'UTR Stem-Loop Driven Alpha-Synuclein mRNA Translation in H4 Neuroglioblastoma Cells. [Related pubchem assays: 1829 (Project Summary), 1814 (Primary HTS)]; type: functional
[23] = Luminescence Cell-Based Dose Response HTS to Identify Activators of Luciferase Translation or Activity in H4 […] Cells. [Related pubchem assays: 1829 (Project Summary), 1814 (Primary HTS)]; type: functional
[24] = test system: H4; test: Luminescence Cell-Based Dose Response HTS to Identify Activators of 5'UTR Stem-Loop Driven Prion Protein mRNA Translation in H4 Neuroglioblastoma Cells. [Related pubchem assays: 1829 (Project Summary), 1814 (Primary HTS)]; type: functional; conditions: Homo sapiens
[25] = test system: HEK293; test: cells; type: functional, cell-based; conditions: Homo sapiens
[26] = molecular target: T5, Nuclear receptor subfamily 0 group B member 1 (Homo sapiens, UniProt P51843); test: Luminescence-based cell-based high throughput dose response assay for inhibitors of the orphan nuclear receptor subfamily 0, group B, member 1 (DAX1; NR0B1). [Related pubchem assays (depositor defined):AID504766, AID504790]; type: functional
T5 sequence (P51843 whole entry): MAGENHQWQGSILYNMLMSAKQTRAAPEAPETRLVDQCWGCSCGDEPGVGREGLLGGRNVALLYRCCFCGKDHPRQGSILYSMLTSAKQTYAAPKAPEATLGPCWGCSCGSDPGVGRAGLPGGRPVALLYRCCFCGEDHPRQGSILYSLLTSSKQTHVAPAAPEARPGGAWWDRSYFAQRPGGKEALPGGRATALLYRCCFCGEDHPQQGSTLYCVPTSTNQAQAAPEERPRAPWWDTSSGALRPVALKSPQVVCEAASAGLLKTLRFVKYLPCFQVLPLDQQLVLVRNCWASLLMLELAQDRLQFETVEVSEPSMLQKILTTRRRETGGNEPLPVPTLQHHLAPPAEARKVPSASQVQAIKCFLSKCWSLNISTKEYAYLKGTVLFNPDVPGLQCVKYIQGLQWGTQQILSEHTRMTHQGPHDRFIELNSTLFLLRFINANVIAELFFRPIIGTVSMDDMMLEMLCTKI

[27] = Luminescence Cell-Based Dose Response to Identify Activators of 5'UTR Stem-Loop Driven Prion Protein mRNA Translation in H4-C Neuroglioblastoma Cells. [Related pubchem assays: 1829 (Project Summary), 1814 (Primary HTS)]; type: functional
[28] = Luminescence Cell-Based Dose Response to Identify Activators of Luciferase Translation or Activity in H4-C Neuroglioblastoma Cells. [Related pubchem assays: 1829 (Project Summary), 1814 (Primary HTS)]; type: functional
[29] = cells; remark: listed apart in the source
[30] = molecular target: Beta-2 adrenergic receptor (Homo sapiens, UniProt P07550); test: ADRB2 activation measured by internalization – cell-based, FAP fluorogen, flow cytometry, cherry pick 1, dose response (AID 588763); type: functional
[31] = molecular target: T6, Oxysterols receptor LXR-beta (Homo sapiens, UniProt P55055); type: functional, cell-based;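 note: Cell-based luminescence dose-response assay of agonist activity at LXR, run as a confirmatory counterscreen to a daf-12 agonist screen; HEK293 cells with Gal4-LXR fusion and GAL4-driven luciferase reporter; agonist potency from rising luciferase signal of a Gal4-LXR reporter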
T6 sequence (P55055 whole entry): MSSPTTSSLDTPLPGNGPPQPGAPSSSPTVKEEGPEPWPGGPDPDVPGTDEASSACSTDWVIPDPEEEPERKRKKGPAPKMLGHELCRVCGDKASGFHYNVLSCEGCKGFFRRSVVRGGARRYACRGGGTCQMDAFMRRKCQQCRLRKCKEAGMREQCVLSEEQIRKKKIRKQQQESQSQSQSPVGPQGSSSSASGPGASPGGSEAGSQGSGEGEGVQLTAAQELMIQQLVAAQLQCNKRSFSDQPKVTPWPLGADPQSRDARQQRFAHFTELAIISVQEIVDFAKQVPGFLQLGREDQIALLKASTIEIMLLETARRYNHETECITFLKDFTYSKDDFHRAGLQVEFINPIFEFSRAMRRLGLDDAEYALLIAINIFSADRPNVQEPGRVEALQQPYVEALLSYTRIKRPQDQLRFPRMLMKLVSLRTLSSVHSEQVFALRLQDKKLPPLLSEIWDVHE

Sequence of Phospholipase A2 (P04054 whole entry): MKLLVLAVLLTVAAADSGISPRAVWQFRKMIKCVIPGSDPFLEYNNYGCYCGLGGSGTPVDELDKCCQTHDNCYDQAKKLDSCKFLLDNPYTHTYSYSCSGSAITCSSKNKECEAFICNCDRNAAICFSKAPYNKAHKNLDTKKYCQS
T4 sequence (P49327 whole entry): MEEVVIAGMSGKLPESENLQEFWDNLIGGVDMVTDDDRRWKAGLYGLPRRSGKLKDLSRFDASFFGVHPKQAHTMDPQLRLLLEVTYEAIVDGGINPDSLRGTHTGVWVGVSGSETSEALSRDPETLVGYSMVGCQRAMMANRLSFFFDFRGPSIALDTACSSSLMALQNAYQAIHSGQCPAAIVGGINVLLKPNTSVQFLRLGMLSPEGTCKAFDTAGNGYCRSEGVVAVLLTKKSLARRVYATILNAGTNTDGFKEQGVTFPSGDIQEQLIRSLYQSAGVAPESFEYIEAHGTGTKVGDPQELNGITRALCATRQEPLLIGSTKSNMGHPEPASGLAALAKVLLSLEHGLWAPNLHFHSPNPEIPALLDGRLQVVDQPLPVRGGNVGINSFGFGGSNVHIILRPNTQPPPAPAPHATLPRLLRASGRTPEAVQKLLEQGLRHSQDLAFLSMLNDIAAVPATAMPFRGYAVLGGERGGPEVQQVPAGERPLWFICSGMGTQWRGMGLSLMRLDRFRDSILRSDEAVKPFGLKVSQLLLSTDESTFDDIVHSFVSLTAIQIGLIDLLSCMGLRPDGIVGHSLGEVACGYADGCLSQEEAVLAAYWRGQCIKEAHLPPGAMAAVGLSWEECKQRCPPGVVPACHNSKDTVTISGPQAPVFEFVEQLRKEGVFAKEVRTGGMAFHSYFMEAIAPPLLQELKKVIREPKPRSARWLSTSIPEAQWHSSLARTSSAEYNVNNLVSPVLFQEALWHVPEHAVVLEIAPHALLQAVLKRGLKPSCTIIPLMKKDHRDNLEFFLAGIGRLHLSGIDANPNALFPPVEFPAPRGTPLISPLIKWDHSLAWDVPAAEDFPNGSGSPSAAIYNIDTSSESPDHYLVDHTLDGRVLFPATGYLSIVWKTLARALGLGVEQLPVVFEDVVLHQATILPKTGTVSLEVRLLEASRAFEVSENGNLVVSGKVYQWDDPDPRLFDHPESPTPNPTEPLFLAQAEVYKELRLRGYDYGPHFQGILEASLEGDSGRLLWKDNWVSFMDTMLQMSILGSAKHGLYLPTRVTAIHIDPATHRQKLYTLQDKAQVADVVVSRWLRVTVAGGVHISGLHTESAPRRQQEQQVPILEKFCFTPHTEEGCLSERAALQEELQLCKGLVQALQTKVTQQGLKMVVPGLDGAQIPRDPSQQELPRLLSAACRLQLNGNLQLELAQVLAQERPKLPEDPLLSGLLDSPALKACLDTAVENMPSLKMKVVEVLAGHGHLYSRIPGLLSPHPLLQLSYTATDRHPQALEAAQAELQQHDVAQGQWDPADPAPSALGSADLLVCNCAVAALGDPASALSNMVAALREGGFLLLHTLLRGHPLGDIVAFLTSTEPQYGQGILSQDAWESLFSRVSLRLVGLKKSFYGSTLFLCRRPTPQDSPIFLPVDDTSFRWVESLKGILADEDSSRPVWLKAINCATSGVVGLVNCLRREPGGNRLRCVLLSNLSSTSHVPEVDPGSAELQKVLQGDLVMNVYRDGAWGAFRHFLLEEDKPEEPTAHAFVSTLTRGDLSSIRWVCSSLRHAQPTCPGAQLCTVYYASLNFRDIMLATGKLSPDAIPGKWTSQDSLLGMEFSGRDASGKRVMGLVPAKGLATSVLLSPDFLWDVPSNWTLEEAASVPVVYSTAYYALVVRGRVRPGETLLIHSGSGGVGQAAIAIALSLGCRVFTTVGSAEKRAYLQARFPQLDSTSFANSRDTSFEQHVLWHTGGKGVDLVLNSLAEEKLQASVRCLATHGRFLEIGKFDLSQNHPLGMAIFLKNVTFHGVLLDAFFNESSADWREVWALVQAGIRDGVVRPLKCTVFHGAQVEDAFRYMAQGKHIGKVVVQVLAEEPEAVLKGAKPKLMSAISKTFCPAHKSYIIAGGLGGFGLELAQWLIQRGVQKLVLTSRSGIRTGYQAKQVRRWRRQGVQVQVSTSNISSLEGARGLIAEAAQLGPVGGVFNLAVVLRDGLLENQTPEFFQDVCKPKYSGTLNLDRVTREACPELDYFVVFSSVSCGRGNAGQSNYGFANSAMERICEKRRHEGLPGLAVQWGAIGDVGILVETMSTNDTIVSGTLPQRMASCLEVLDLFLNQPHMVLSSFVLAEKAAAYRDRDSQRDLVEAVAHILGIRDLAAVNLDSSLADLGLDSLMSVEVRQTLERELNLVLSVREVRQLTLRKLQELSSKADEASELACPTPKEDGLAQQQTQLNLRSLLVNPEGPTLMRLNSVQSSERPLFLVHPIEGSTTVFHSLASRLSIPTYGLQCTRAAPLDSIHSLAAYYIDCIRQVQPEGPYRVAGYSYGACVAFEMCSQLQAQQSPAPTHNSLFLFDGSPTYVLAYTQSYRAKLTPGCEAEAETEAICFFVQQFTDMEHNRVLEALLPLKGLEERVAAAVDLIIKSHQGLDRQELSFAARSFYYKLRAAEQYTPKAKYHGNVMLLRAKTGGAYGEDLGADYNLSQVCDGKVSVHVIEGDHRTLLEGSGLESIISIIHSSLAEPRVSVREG
Sequence of 72 kDa type IV collagenase (P08253 whole entry): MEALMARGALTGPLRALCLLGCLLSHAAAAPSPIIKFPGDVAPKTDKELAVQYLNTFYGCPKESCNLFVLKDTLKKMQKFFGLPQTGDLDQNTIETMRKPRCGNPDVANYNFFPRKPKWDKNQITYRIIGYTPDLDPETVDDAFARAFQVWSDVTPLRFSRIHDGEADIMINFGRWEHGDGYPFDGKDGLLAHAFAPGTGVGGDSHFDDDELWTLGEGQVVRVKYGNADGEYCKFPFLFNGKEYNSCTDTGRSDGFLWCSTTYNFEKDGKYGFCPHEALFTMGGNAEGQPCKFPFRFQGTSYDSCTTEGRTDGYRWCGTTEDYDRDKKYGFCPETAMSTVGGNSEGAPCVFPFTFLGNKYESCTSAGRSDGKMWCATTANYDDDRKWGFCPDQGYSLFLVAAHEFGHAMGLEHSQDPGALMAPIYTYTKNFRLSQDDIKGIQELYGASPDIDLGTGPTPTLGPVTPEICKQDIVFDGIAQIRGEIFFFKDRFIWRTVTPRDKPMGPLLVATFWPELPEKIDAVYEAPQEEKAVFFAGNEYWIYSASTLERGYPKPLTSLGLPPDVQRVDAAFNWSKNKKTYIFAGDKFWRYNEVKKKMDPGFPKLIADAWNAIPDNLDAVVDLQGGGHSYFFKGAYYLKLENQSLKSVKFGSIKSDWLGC
Sequence of 26S proteasome non-ATPase regulatory subunit 14 (O00487 whole entry): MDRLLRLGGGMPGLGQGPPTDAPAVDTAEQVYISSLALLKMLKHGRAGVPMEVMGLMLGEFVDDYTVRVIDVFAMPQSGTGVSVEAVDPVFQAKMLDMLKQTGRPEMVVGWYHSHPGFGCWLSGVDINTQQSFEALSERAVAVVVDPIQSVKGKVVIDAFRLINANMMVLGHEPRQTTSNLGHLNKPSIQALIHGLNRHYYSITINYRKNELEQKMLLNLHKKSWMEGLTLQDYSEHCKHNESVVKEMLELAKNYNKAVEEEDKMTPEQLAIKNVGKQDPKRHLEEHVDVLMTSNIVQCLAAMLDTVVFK
Sequence of Estrogen receptor beta (Q92731 whole entry): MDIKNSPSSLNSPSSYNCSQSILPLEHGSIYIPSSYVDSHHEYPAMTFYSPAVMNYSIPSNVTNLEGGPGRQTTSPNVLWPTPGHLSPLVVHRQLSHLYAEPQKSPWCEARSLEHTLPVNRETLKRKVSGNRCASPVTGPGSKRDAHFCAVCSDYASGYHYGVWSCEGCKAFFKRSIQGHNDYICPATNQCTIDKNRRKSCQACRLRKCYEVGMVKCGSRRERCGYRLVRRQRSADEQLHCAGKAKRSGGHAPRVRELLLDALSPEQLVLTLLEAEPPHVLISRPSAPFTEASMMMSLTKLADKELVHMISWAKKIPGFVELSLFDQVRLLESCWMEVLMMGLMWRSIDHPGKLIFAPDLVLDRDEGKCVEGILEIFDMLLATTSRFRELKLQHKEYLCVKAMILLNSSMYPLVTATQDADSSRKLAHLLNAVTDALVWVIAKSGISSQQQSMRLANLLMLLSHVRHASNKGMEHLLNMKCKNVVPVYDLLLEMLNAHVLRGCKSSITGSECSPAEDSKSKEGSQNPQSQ
Sequence of Beta-2 adrenergic receptor (P07550 whole entry, the tested form may be a part): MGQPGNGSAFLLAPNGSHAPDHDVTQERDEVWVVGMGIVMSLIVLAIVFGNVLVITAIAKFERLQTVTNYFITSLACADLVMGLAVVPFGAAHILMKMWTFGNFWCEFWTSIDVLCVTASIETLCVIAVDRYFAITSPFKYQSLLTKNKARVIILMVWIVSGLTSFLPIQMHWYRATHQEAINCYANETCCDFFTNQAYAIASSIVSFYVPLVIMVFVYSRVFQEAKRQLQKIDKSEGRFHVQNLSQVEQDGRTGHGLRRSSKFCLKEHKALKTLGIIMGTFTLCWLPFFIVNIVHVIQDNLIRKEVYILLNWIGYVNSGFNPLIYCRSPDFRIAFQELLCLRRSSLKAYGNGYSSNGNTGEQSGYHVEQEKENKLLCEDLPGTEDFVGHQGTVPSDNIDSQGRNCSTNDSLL

With `CCCC(=O)NC(=S)Nc1cccc(NC(=O)c2ccccc2Cl)c1` the IC50 [1] was 6.96 µM (active) and the IC50 [2] was 10.3 µM (active).
In the case of `COc1ccccc1CNC(=O)c1ccccc1OCc1ccc(F)cc1`, the IC50 [3] is reported as 43.6 µM (inactive) and the IC50 [4] is reported as 49.5 µM (inactive).
For `CCC(C)Sc1ccc([C@@H]2[C@H]3C(=O)N(CC)C(=O)[C@H]3[C@]3(C(=O)OC)CCCCN23)cc1` (stereo not given in full), the IC50 [5] was 69 µM (active), the IC50 [6] was 47.8 µM (active) and the IC50 [7] was > 100 µM (inactive).
With `Cc1ccc(C(=O)O)cc1-c1ccc(/C=C2/NC(=O)N(c3ccccc3)C2=O)o1` the IC50 [8] was > 50 µM (not active), the IC50 [5] was 16.3 µM (active) and the IC50 [9] was 11 µM (active). For the same compound, the IC50 [6] was 33.9 µM (active), the IC50 [7] was 29.3 µM (active) and the IC50 [10] was 4.1 µM (active).
For `CCCCn1c(CN2CCN(c3ccccc3)CC2)nc2c1c(=O)n(C)c(=O)n2C`, the AC50 [11] was 1.27 µM (active), the AC50 [12] was 2.05 µM (active) and the EC50 [13] was 21.9 µM (active). The AC50 [14] was 6.34 µM (active), the IC50 [15] was 15.3 µM (active) and the EC50 [16] was 38.9 µM (active). For the same compound, the IC50 [17] was 21.5 µM (inactive), the IC50 [1] was 1.96 µM (active) and the IC50 [2] was 4.27 µM (active).
In the case of `COc1cccc(NC(=O)[C@H](Cc2c[nH]c3ccccc23)NC(=O)[C@@H]2Cc3ccccc3CN2)c1`, the IC50 [18] is reported as 9.61 µM (active), the CC50 [19] is reported as > 25 µM (active) and the CC50 [20] is reported as 17.1 µM (active). For the same compound, the IC50 [21] was 7.96 µM (active).
With `CC(C)c1cc(C(=O)NCCc2ccccc2)no1` the EC50 [22] was 1.06 µM (active), the EC50 [23] was < 0.1 µM (inconclusive) and the EC50 [24] was 7.28 µM (active). For the same compound, the IC50 [25] was > 67.5 µM (inactive), the IC50 [26] was > 67.5 µM (inactive) and the EC50 [27] was 1.54 µM (active). For the same compound, the EC50 [28] was 0.375 µM (active).
With `Cc1c(Cl)c([N+](=O)[O-])nn1Cc1ccc(C(=O)Nc2ccc(Cl)cn2)o1` the IC50 [3] was 22.5 µM (inactive) and the IC50 [4] was 11.1 µM (active).
For `Cn1c(=N)n(CC(=O)c2ccc(Br)cc2)c2ccccc21`, the EC50 [29] was > 67.5 µM (inactive), the EC50 [30] was 15.6 µM (inactive) and the EC50 [31] was > 67.5 µM (inactive).
With `O=c1cc(-c2ccccc2)oc2ccc(O)cc12` [6-HYDROXYFLAVONE] the IC50 [25] was > 67.6 µM (inactive) and the IC50 [26] was > 67.6 µM (inactive).

Reference: ChEMBL document CHEMBL1201862, “PubChem BioAssay data set” (2004)
